In ChEMBL document CHEMBL1201862, “PubChem BioAssay data set” (2004):
Activity calls are given as the source filed them.

Tests used:
[1] = HEK293T cytotoxicity, dose response, cytotoxicity control for miR-122 modulator project, cell-based, inhibitor set, cherry-pick, set 2 (AID 720697); type: functional
[2] = molecular target: Beta-galactosidase (Escherichia coli, UniProt Q8VNN2); test: beta-galactosidase enzyme inhibitors and activators, dose response, artefact control for CCR6 antagonist project, biochemical, E. coli enzyme, set 3 (AID 504712); type: functional
Chain of Beta-galactosidase (Q8VNN2 whole entry): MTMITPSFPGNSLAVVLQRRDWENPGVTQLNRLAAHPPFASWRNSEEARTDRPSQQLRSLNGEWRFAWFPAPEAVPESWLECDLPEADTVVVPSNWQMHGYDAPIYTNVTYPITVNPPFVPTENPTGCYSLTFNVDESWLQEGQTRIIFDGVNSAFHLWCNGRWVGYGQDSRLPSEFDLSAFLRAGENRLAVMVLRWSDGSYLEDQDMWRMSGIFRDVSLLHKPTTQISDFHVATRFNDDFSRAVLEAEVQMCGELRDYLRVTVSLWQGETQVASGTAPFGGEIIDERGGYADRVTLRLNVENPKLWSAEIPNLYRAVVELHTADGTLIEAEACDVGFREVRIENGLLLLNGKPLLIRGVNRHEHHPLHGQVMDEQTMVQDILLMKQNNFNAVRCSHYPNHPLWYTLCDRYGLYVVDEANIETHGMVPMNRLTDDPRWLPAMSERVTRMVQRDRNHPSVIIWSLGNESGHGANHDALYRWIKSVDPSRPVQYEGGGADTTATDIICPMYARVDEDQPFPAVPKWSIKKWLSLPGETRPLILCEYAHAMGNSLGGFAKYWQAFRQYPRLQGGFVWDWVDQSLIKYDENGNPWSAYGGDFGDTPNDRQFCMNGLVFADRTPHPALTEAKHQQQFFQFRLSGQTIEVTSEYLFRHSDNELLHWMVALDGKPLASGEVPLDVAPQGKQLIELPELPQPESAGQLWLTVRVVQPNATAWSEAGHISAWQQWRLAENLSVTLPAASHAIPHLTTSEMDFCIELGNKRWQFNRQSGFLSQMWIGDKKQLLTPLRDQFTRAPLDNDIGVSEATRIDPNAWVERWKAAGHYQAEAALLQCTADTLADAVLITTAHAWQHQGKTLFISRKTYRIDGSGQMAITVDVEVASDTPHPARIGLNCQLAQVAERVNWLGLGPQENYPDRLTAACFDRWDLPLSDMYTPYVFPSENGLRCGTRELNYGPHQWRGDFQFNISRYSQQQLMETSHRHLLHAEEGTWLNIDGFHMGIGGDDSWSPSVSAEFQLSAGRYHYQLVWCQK

[3] = test system: HEK293; test: NOD1 signaling inhibitors, primary screen, cell-based, luminescence, uHTS (AID 1578); type: functional; conditions: Homo sapiens
[4] = Shn3 3'UTR reporter inhibitors, dose response, cell-based, Clone20 osteoblasts, firefly luciferase, cherry-picked (AID 624132); type: functional;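 note: firefly luciferase luminescence from reporter carrying the Shn3 3'UTR in osteoblasts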
[5] = miR-122 activators in hepatoma reporter cells, dose response, cell-based, Huh7 psiCHECK-miR122, Renilla luciferase, cherry-picked (AID 651956); type: functional;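 note: huh7 hepatoma cells stably carrying a psiCHECK-2 miR-122 sensor plasmid; renilla luciferase signal reporting endogenous miR-122 activity after 48 h compound exposure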
[6] = Fluorescence-based cell-based high throughput dose response assay for inhibitors of the interaction of nucleotide-binding oligomerization domain containing 2 (NOD2) and the receptor-interacting serine-threonine kinase 2 (RIPK2).; type: functional; conditions: Homo sapiens
[7] = HepG2 cell cytotoxicity, dose response, cytotoxicity control for Shn3 inhibitor project, CellTiter-Glo, cherry-picked (AID 624134); type: functional, cell-based
[8] = cytotoxicity toward NIH3T3 fibroblasts, dose response, counter-screen, cell-based, ATP luminescence, mouse fibroblasts (AID 2010); type: functional;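 note: cells exposed to compound for about 90 hours before reading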
[9] = molecular target: Nucleotide-binding oligomerization domain-containing protein 2 (Homo sapiens, UniProt Q9HC29); test: NOD2 signaling inhibitors, cell-based, luminescence, uHTS, HEK293 (AID 1566); type: functional
Chain of Nucleotide-binding oligomerization domain-containing protein 2 (Q9HC29 whole entry, the tested form may be a part): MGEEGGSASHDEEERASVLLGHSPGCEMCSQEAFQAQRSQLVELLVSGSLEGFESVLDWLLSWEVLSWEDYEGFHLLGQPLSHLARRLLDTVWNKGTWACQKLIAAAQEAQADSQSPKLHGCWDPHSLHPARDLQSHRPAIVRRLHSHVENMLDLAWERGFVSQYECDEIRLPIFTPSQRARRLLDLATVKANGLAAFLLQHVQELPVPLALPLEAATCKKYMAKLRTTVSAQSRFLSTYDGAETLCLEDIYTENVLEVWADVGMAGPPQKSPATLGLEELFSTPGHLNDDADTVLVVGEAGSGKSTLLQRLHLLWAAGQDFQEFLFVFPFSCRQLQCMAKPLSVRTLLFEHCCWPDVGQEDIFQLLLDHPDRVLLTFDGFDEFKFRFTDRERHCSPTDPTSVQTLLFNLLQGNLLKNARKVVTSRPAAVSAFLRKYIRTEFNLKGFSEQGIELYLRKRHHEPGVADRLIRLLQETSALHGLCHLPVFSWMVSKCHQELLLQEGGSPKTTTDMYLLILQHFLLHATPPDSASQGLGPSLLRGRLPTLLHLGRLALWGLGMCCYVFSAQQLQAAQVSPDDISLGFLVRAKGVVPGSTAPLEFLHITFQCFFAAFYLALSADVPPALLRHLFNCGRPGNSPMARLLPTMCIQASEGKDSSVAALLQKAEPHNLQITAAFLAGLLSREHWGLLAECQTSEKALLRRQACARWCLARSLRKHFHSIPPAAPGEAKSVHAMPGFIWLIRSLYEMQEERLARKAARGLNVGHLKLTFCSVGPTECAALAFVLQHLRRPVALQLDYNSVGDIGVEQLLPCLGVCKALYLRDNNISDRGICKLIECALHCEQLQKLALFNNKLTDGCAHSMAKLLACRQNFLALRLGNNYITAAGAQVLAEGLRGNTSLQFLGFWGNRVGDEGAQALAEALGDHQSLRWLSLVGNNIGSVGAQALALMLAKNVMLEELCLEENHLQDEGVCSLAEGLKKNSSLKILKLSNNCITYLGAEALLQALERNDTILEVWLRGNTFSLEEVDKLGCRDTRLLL

[10] = inhibitors of intracellular T. cruzi replication, confirmation, NIH3T3 host cells, beta-gal luminescence (AID 2044); type: functional, cell-based;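 note: intracellular parasites grown in NIH/3T3 mouse fibroblasts as host cells; luminescent beta-galactosidase reporter signal from transgenic T. cruzi replicating inside host cells; inhibitors lower the luminescence signal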
[11] = molecular target: Heat shock protein HSP 90-alpha (Homo sapiens, UniProt P07900); type: functional, organism-based
[12] = molecular target: Apelin receptor (Homo sapiens, UniProt P35414); test: APJ beta-arrestin recruitment antagonism, SAR follow-up, selectivity assay for CCR6 antagonist project, cell-based, luminescent, enzyme-fragment complementation (AID 588359); type: functional
Chain of Apelin receptor (P35414 whole entry, the tested form may be a part): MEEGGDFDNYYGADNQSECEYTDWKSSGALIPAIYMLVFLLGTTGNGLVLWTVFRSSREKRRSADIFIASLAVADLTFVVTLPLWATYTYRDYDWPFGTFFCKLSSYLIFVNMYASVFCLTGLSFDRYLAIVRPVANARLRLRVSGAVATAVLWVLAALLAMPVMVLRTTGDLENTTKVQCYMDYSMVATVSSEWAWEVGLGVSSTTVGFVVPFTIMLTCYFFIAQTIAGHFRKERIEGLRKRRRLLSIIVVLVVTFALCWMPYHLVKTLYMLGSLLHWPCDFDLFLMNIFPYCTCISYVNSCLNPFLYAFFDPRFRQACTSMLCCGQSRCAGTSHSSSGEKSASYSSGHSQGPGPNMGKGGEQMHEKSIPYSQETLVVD

[13] = HEK293T cytotoxicity, dose response, cytotoxicity control for miR-122 modulator project, cell-based, activator set, cherry-pick (AID 720690); type: functional;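 note: HEK293T human cells scored for general mammalian cytotoxicity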
[14] = molecular target: FAD-linked sulfhydryl oxidase ALR (Homo sapiens, UniProt P55789); test: inhibitors of human ALR sulfhydryl oxidase, dose response, biochemical, H2O2 detection, luminescence, cherry-pick (AID 493248)
Chain of FAD-linked sulfhydryl oxidase ALR (P55789 whole entry): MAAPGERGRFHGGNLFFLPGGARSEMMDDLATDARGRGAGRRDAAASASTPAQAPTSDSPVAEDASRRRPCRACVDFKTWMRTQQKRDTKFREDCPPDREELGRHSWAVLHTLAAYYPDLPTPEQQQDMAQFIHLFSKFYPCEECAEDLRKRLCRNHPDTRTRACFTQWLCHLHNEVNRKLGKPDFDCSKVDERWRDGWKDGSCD

[15] = test system: HEK293; test: cells; type: functional, cell-based; conditions: Homo sapiens
[16] = test system: HEK293; test: cells; type: functional, cell-based; conditions: Homo sapiens; remark: listed apart in the source
[17] = test system: HEK293; test: NOD2 signaling inhibitors in MDP-stimulated cells, cell-based, uHTS, luminescence (AID 2001); type: functional; conditions: Homo sapiens
[18] = test system: INS1; test: beta cell apoptosis inhibitors, cytokine rescue, dose response, luminescence, retest (AID 449756); type: functional, cell-based; conditions: Rattus norvegicus;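 note: cell death triggered by IL-1 beta plus TNF-alpha plus IFN-gamma mixture; protective hits raise ATP signal compared with cytokine alone wells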
[19] = test system: HEK293; test: cells; type: functional, cell-based; conditions: Homo sapiens; remark: listed apart in the source
[20] = control 3'UTR Renilla luciferase suppression, dose response, counter-screen for Shn3 inhibitor project, cell-based, Clone20-Shn3RL, cherry-picked (AID 624133); type: functional
[21] = molecular target: T1, Heat shock factor protein 1 (Mus musculus, UniProt P38532); test: inhibition of MG132-induced HSE-luciferase signal, confirmation, cell-based, NIH3T3, luminescence, dose retest (AID 2382); type: functional;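 note: NIH3T3 fibroblasts with HSF1-driven luciferase reporter stressed by proteasome inhibitor MG132; luminescence from HSF1-driven luciferase expression after 8 hours of MG132 stress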
T1 sequence (P38532 whole entry): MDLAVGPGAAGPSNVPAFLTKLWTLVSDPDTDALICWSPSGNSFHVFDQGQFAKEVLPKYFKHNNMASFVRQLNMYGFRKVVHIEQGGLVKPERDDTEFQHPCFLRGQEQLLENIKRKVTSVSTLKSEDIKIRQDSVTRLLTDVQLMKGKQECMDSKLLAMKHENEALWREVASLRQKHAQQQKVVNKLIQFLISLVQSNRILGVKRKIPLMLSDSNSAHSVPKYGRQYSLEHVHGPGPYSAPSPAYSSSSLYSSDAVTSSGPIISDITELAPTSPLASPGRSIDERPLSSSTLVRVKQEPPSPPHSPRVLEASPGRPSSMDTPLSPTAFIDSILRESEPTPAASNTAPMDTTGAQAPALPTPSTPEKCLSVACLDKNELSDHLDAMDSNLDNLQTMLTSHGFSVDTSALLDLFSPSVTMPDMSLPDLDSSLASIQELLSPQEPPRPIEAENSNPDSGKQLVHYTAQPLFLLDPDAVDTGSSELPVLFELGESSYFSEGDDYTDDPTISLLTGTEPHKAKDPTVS

[22] = molecular target: 5-hydroxytryptamine receptor 5A (Homo sapiens, UniProt P47898); test: Counterscreen for agonists of OPRM1-OPRD1 heterodimerization: luminescence-based cell-based high throughput dose response assay to identify agonists of 5-hydroxytryptamine (serotonin) 5A receptor (HTR5A). [Related pubchem assays (depositor defined):AID504326, AID504355, AID504692, AID504904, AID504905]; type: functional
Chain of 5-hydroxytryptamine receptor 5A (P47898 whole entry): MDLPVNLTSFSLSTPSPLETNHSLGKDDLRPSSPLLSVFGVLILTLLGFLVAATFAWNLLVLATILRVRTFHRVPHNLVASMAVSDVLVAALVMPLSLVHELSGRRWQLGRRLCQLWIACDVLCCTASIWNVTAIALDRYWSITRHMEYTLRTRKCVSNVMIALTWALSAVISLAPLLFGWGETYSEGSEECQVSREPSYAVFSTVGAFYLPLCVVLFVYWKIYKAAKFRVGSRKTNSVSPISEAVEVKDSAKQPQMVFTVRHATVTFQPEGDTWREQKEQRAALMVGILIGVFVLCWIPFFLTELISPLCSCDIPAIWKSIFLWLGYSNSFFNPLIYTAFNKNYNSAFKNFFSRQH

[23] = molecular target: Mu-type opioid receptor (Homo sapiens, UniProt P35372); test: (§1) Counterscreen for agonists of heterodimerization of the mu 1 (OPRM1) and delta 1 (OPRD1) opioid receptors: Luminescence-based cell-based high throughput dose response assay to identify agonists of OPRM1 homodimerization.; type: functional
Chain of Mu-type opioid receptor (P35372 whole entry): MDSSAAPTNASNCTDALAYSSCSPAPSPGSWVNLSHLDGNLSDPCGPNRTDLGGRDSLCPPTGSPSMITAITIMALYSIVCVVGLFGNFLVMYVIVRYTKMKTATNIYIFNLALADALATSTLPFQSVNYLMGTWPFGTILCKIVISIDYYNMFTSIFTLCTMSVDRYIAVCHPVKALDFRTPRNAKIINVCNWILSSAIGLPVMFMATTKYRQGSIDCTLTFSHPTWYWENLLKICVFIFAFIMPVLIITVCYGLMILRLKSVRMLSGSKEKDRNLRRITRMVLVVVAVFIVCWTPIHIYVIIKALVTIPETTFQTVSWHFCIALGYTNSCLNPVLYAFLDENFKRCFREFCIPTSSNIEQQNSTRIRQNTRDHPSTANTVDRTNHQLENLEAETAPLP

[24] = molecular target: Delta-type opioid receptor (Homo sapiens, UniProt P41143); test: as §1, with “of OPRD1” for “of OPRM1”, “homodimerization. [Related pubchem assays (depositor defined):AID504326, AID504355, AID504692, AID504904, AID504905]” for “homodimerization.”; type: functional
Chain of Delta-type opioid receptor (P41143 whole entry): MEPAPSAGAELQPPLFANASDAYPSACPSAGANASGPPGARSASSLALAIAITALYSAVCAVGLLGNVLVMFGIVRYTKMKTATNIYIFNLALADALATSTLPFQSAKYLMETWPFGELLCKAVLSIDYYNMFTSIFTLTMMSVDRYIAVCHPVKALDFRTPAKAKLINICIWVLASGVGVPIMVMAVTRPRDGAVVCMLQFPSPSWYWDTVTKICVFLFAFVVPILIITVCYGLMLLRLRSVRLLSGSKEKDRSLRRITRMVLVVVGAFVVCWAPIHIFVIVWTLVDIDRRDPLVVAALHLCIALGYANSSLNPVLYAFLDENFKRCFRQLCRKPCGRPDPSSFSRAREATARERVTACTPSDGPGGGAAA

Cc1ccc(S(=O)(=O)c2ccc([N+](=O)[O-])cn2)cc1
inactive: IC50 [2] > 66.6 µM | EC50 [9] > 20 µM | IC50 [12] 23.4 µM | IC50 [15] > 20 µM | AC50 [18] > 260 µM | IC50 [19] > 20 µM
active: AC50 [1] 7.35 µM | EC50 [3] 6.69 µM | AC50 [4] 3.85 µM | AC50 [5] 10.6 µM | IC50 [6] 6.33 µM | AC50 [7] 12.1 µM | EC50 [8] 3.42 µM | EC50 [10] 2.38 µM | AC50 [11] 4.18 µM | AC50 [13] 4.36 µM | AC50 [14] 15.3 µM | IC50 [16] 5.37 µM | IC50 [17] 6.5 µM | AC50 [20] 3.26 µM

COc1ccc(/C=C/C(=O)NC(=S)NCCc2ccc(OC)c(OC)c2)cc1
inactive: EC50 [22] > 92.5 µM | EC50 [23] > 92.5 µM | EC50 [24] > 92.5 µM
active: EC50 [21] 13.6 µM
